Laboratory results published in patent publication US6887876B2, “Benzamidine derivatives” (Ortho-McNeil Pharmaceutical, Inc., priority 2000, dated 2005).

Legend:
[1] = tested on: acetylcholine bromide-induced abdominal constriction response; assay: Mouse acetylcholine bromide-induced abdominal constriction assay (MAIT); type: in vivo; details: po, 0.5 h, 150 μmole/Kg p.o., acetylcholine bromide 5.5 mg/kg i.p. 30 min later
Protocol: The mouse acetylcholine-induced abdominal constriction assay, as described by Collier et al. in […]., 32: 295-310, 1968 with minor modifications, was used to assess analgesic potency of the compounds of formula (I). The test drugs or appropriate vehicles were administered orally (p.o.) and 30 min later the animal received an intraperitoneal (i.p.) injection of 5.5 mg/kg acetylcholine bromide (Matheson, Coleman and Bell, East Rutherford, N.J.). The mice were then placed in groups of three into glass bell jars and observed for a ten min observation period for the occurrence of an abdominal constriction response (defined as a wave of constriction and elongation passing caudally along the abdominal wall, accompanied by a twisting of the trunk and followed by extension of the hind limbs). For compounds of the present invention, the percent inhibition of this response to a nociceptive stimulus (equated to % analgesia) was calculated as follows: [formula]

[2] = molecular target: δ-opioid receptor (Rattus norvegicus, UniProt P33533); assay: Rat brain δ-opioid receptor binding assay ([3H]DPDPE)
δ-opioid receptor (Rattus norvegicus, UniProt P33533), sequence (P33533 whole entry): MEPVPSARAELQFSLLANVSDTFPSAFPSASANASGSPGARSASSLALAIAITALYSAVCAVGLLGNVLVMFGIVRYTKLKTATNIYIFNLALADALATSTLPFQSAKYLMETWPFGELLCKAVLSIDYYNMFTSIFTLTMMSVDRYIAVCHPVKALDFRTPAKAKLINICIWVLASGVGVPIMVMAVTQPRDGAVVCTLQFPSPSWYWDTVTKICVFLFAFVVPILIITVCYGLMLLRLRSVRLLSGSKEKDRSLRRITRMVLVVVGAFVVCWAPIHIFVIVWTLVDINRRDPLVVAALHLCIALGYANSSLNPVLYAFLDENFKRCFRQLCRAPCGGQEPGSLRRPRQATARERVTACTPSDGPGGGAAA

[3] = molecular target: T1, δ-opioid receptor (Homo sapiens, UniProt P41143); assay: Scintillation screening assay for δ-opioid receptor binding ([3H]bremazocine); details: cloned human receptor in CHO cell membranes, [3H]bremazocine 2.4 nM, read-out: δ-Opioid Receptor Binding (% Inhibition), % I @ 25 μM
T1 construct: purchased Receptor Biology, Baltimore, Md; host or cells: CHO cells (membranes)
T1 sequence (P41143 whole entry): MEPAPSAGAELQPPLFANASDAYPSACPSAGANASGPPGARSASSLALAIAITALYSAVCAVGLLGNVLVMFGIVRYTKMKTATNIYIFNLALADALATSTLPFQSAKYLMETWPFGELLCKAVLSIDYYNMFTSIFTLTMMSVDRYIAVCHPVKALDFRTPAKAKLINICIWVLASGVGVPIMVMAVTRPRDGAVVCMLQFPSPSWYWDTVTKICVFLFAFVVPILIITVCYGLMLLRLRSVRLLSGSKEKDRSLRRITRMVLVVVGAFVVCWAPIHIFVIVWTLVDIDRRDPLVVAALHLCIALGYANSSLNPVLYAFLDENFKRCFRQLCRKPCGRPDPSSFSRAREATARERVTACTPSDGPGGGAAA
Source text: Scintillation Screening Assay for δ-Opioid Receptor Binding
This is a receptor based screen to detect the competitive binding of test compounds at the δ-opioid receptor against the radioligand, [^3H]bremazocine (S.A.=25.5 Cl/mmol, Dupont/NEN, Cambridge, Mass.). Unknown compounds that bind to the same receptor as the radioligand will compete for the receptor and reduce the amount of radioligand which binds to the receptor. This is detected as a decreased scintillation signal from that particular incubation. The greater affinity an unknown has for the receptor, the larger the observed decrease in […] to the receptor; thus the assay is in the format of an inhibition study.
The receptor is a cloned human cDNA expressed in mammalian CHO cells. Membranes prepared from these cells are purchased from Receptor Biology, Baltimore, Md. The reaction buffer is composed as follows: HEPES (50 mM final), MgCl.6H2O (5 mM final), o-phenanthroline (20 mg/l), aprotinin (10 mg/l), Pefabloc SC (250 mg/l), leupeptin (0.5 mg/l), pepstatin A (0.7 mg/l), trypsin inhibitor (25 mg/l), chymostatin (10 mg/l), pH=7.2. Naloxone, 10 uM, is used to define non-specific binding. The assay employs filtration to capture receptor and bound ligand.
The receptor (membrane) preparation (28 ug protein) is allowed to incubate with the opioid receptor radioligand ([^3H]bremazocine, 2.4 nM) in 96-well plates until equilibrium is reached (>2 hr). Following incubation with the radioligand at 23° C., the well contents are filtered onto 96-well Whatman GF/C filter plates using a Packard cell harvester. Radioligand bound to the receptor also remains on the filter. The filters are rinsed three times with 0.5 mL of physiological saline (0.9% NaCl) to remove any unbound radioligand from the filter. Filters are dried and scintillation fluid is then added to the filters which emits light in proportion to the amount of radioactivity on the filter which is determined using an Packard Topcount scintillation counter. Data are reported as percent inhibition of control binding.

[4] = molecular target: μ-opioid receptor (Rattus norvegicus, UniProt P33535); assay: Rat brain μ-opioid receptor binding assay ([3H]DAMGO)
μ-opioid receptor, sequence (P33535 whole entry): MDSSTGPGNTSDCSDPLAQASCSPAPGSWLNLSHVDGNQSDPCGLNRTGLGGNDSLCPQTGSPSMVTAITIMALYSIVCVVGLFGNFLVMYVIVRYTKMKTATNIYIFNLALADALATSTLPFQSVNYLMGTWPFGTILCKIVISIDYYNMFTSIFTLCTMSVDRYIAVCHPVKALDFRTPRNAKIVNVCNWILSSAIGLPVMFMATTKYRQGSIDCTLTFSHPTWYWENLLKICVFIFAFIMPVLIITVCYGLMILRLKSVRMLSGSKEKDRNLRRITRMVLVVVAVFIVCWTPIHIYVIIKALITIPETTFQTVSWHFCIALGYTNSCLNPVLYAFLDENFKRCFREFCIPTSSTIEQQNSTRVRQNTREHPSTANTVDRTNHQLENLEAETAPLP

SMILES: CCN1CCN(C(=Nc2ccccc2F)c2ccc(C(=O)N(CC)CC)cc2)CC1 [Compound 10, N,N-diethyl-4-[(4-ethyl-1-piperazinyl)[(2-fluorophenyl)imino]methyl]-benzamide]
- inhibition in vivo at 150 µmol/kg [1]: 26.7%
- Ki [2]: 118 nM
- inhibition at 25 µM [3]: 102%
- Ki [4]: > 10000 nM
